Test results as given in ChEMBL document CHEMBL5223064, “A review of the latest research on Mpro targeting SARS-COV inhibitors” (RSC Med Chem, 2021).
Peptide text beside a SMILES is read from it.

Key:
SARS-CoV-2 = experiment: Antiviral activity against SARS-CoV-2 USA-WA1/2020 infected in African green monkey Vero 76 cells assessed as reduction in virus-induced cytopathic effect measured after 5 days by neutral red dye uptake analysis; assay type: functional, organism-based; conditions: Severe acute respiratory syndrome coronavirus 2, USA-WA1/2020, Vero 76, 120 h
[1] = Bioavailability in CD-1 mouse at 20 mg/kg, ip measured for 24 hrs by LC-MS/MS analysis; assay type: ADME, organism-based; conditions: in vivo

Row | SMILES | EC50 (SARS-CoV-2) | bioavailability [1]
1 | CC(C)C[C@H](NC(=O)OCc1ccccc1)C(=O)N[C@@H](C[C@@H]1CCNC1=O)C(O)S(=O)(=O)O (some centres undefined) | 0.49 µM | 
2 | O=C[C@H](C[C@@H]1CCNC1=O)NC(=O)[C@H](Cc1cccc(F)c1)NC(=O)c1cc2ccccc2[nH]1 |  | 80%
3 | CSCC[C@@H](C=O)NC(=O)[C@H](CC(C)C)NC(=O)[C@H](CC(C)C)NC(C)=O (Ac-Leu-Leu-Met-aldehyde) | 0.49 µM | 
4 | CC(C)(C)NC(=O)N[C@H](C(=O)N1C[C@H]2[C@@H]([C@H]1C(=O)NC(CC1CCC1)C(=O)C(N)=O)C2(C)C)C(C)(C)C (some centres undefined) [BOCEPREVIR] | 0.49 µM | 
